Bridges are numbered along the chain shown (N, C = ends).
Assays:
[1] = test system: DRG neurons; experiment: NT-3-dependent neurite outgrowth of DRG neurons; type: cell-based, chick; conditions: n = 8
Experimental: (§1) Dissosiated cells enriched for sensory neurons were prepared from ED8 chick DRG as described (Dostaler, S. M. et al. Characterization of a distinctive motif of the low molecular weight neurotrophin receptor that modulates NGF-mediated neurite growth. Eur. J. Neurosci. 8, 870-879 (1996)). Neurons were seeded at a density of 800-1000 cells/well in Ham's F-12 containing 5% FCS and NGF at 10 pM into wells of Terasaki plates treated with polyysine. The cells were incubated with the indicated additives at 37° C. in a 5% CO2 atmosphere. The cells on the entire lower horizontal surface of the well were scored for neurite growth at 18-20 hours using an inverted microscope fitted with phase contrast optics. A neurite was scored if its caliber from the origin to terminal was constant and its length was equal to or greater than 1.5 cell body diameters. Neurite growth was corrected for background (no NGF).
(§2) Human recombinant BDNF and human recombinant NT-3 were obtained from Alomone Laboratories (Israel). The iodination, crosslinking, and binding experiments using BDNF and NT-3 were performed using the methods described above for NGF. Neurite outgrowth assays were performed as described in the presence of 4.0 nM NT-3 or 8.0 nM BDNF.

[2] = test system: DRG neurons; experiment: BDNF-dependent neurite outgrowth of DRG neurons; type: cell-based, chick; conditions: n = 8
Experimental: as §1, §2

[3] = test system: p75^NTR; experiment: 125I-BDNF binding to p75NTR; conditions: 100 μM Zn2+, n = 3; 120 min
Experimental: Full length (1-118) mouse NGF purified by HPLC from 2.5S NGF (purity greater than 95%) was obtained from Cedarlane Laboratories (Toronto, Ont). The iodination of NGF was performed as previously described (Sutter, A, Riopelle, R. J., Harris-Warrick, R. M. & Shooter, E. M. Nerve growth factor receptors. J. Biol. Chem. 254, 5972-5982 (1979)). […] PC12 cells were grown in RPMI with 10% heat inactivated donor horse serum and 5% fetal calf serum. Each data point was set up in a single tube containing ^125 I-NGF (at the required concentration), 400,000 cells (for a final call concentration of 10^6 /ml), BDNF (at 40 nM for TrkA binding) and NGF (at 10 nM for non-specific binding) as required. The tubes were incubated for 2 hr at 4° C. and 100 μl aliquots (providing triplicate data points for each sample) were transferred to 400 μl microcentrifuges containing 200 μl of 10% glycerol in HKR. Tubes were centrifuged for 2 minutes at 5,000 rpm, the tip containing the cell pellet cut off and radioactivity bound to the cells was determined.
as §2

[4] = test system: kindling-induced seizures; experiment: Kindling (seizure development) in rats; type: in vivo, Male Long-Evans hooded rats; conditions: intraventricular infusion; peptide 45 μM, anti-NGF 100 μg/day
Experimental: The effect of the present neurotrophin-derived peptides on kindling was determined as follows.
Male Long-Evans hooded rats (300-400 g) were used. The animals were housed individually, maintained on an ad lib feeding schedule and kept on a 12 h on/12 h off light cycle. The rats were anaestetised with 0.1 mL per 100 g body weight of 100 mg/mL ketamine hydrochloride (Roger/STB Inc., London, Canada) and 0.05 mL per 100 g body weight of 20 mg/mL xylocaine 2% hydrochloride (Astra, Mississauga, Canada), and then placed in a stereotaxic holder. […] Following implantation of the electrode, a cannula (Alzet brain infusion kit, Alza Corp.) was implanted in the lateral ventricle, 5 mm below the skull surface, at 0.6 mm caudal to bregma and 1.3 mm lateral to the midline. It was firmly attached to the skull with dental cement and anchored with tee stainless steel screws. […] Histological examination of lateral ventricle sections was done to confirm that the cannula was correctly placed. […] There were five groups of test animals, 5 animals per peptide test group, 10 animals in the negative control group and 12 animals in the positive control group. […]
Following a three-day recovery, the kindling stimulations were started. […] Progression of kindling was monitored behaviorally and electrophysiologically by recording the behavioral seizure stages and the duration and magnitude of afterdischarges.

[5] = test system: BDNF; conditions: Rashid et al. 1995; cited from earlier work

| Molecule | Neurite Outgrowth, NT-3 (4.0 nM) ([1]; 30 μM Zn2+) | Neurite Outgrowth, NT-3 (4.0 nM) ([1]; 50 μM Zn2+) | Neurite Outgrowth, BDNF (8.0 nM) ([2]; 30 μM Zn2+) | Neurite Outgrowth, BDNF (8.0 nM) ([2]; 50 μM Zn2+) | % Maximum p75NTR binding, 125I-BDNF [3] [% Maximum binding] | Delay of the onset of kindling (number of stimulations to stage-5 seizures) [4] | Antagonism of BDNF in vitro [5] |
| --- | --- | --- | --- | --- | --- | --- | --- |
| [Zn+2] [Zn^2+] | 79.9 ± 13.8 % Maximum process bearing neur | 18.4 ± 9.6 % Maximum process bearing neur | 30.0 ± 13.3 % Maximum process bearing neur | 1.4 ± 1.4 % Maximum process bearing neur | 10.0 ± 4.5 | – | – |
| NH2 -Cys-Gly-Ser-Glu-Val-Pro-Asn-Ser-Ala-Arg-Cys-Cys-Val-Cys-OH (H-CGSEVPNSARCCVC-OH; disulfide 1-14, 11-12) [R11, bicyclic peptide of NGF residues 68-58/108-110, two disulfide bonds] | – | – | – | – | – | approximately equal to that of the anti-NGF IgG | effective antagonist |
